The values that follow come from patent US12583870B2, “Azaheteroaryl compound and application thereof” (SHANGHAI BLUERAY BIOPHARMA CO., LTD., priority 2019, dated 2026).

The subject of assay [1] is trimethylation level of histone H3K27 in G401 cells. Put plainly: ELISA (H3K27 trimethylation) analysis in G401 cells. As to conditions: Homo sapiens, G-401, 72 hours, H3K27me3 standardized to H3. The assay is classed as cell-based. The method, boiled down: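 Cells exposed 72 h to 10-point 3-fold dilutions, top 10 μM, 0.5% final DMSO. Acid-extracted histones assayed by ELISA (ECL) for H3K27me3, normalized to total H3 and to DMSO control; IC50 from dose-response fit.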

The target in assay [2] is T1, EED protein (His6-tagged full-length) binding to H3K27me3 polypeptide (Homo sapiens, UniProt O75530).
T1 construct: His6-tagged full-length EED protein (441 amino acids)
T1 sequence (O75530 whole entry): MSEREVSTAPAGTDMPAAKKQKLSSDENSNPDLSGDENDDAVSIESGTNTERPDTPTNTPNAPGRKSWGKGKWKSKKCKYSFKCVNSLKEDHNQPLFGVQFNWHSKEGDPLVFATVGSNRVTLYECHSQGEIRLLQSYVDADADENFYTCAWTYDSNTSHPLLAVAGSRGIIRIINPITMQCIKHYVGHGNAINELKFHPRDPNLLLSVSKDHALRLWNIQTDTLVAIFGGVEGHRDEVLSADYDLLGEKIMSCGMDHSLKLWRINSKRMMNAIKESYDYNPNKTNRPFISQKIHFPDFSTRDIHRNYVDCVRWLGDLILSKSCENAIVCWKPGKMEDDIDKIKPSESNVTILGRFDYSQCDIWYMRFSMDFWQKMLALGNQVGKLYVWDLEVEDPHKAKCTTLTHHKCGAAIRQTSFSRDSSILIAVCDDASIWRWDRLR
Description: AlphaScreen evaluation of blocking the binding of EED to H3K27Me3. As to conditions: EED 60 nM, biotinylated H3K27me3 75 nM, 30 minutes incubation. How it is done: Firstly, compound solutions of different concentration gradients were prepared. Compound powder was dissolved in DMSO to prepare a mother liquor. 1.5 μl of the mother liquor of the compound was taken and added into 198.5 μl of a reaction buffer (25 mM HEPES (pH 8.0), 50 mM NaCl, 0.015% Tween 20, 0.5% BSA). The mixture was mixed uniformly. Then a 3-fold series dilution was carried out with the above-mentioned buffer containing 0.75% DMSO. 9 different test concentrations were provided for one same compound. 5 μL of compounds of different concentration gradients were taken and added into the ProxiPlate-384 Plus, White detection plate (PerkinElmer, 6008280) and two replicates in parallel were provided for each concentration gradient.
Secondly, a reaction for blocking the binding was carried out. The above-mentioned buffer was used to dilute His6-tagged full-length EED protein (441 amino acids) to 60 nM and biotinylated polypeptide fragment H3K27me3 (amino acids at positions 19-33) (Biotinylated-H3K27me3) to 75 nM. 5 μl of the polypeptide fragment at the concentration of 75 nM and 5 µl of the protein at the concentration of 60 nM were transferred to the detection wells containing the compound, respectively. The detection plate was sealed with the film and incubation was carried out at room temperature for 30 minutes.
Finally, the detection was carried out with the AlphaScreen method. Prior use, nickel chelate receptor beads and streptavidin donor beads (at the ratio of 1:1, Perkin Elmer, product number 6760619M) were mixed with the above-mentioned reaction buffer. Then 5 μl of the above-mentioned pre-mixed detection solution was added to each of the detection wells. The donor beads and receptor beads were both at a final concentration of 5 μg/mL. The detection plate was covered and sealed with tinfoil and placed in the dark at room temperature for 1 hour. The signal was read using the AlphaScreen detector on the Spectra max i3. AlphaScreen signals were standardlized based on the readings obtained from positive controls (maximum signal controls) and negative controls (minimum signal controls) to give the inhibition rates for compounds at different concentrations, and afterwards non-linear regression analysis was carried out using GraphPad Prism 5, inhibition curves were made based on the Dose-Response equation of Y=Bottom+(Top−Bottom)/(1+10^((Log IC50−X)*HillSlope)) and the IC50 values of each compound were obtained. […]

Another assay relates to KARPAS-422 cells. Put plainly: Cell proliferation analysis, KARPAS-422, 13 days, CellTiter-Glo. The assay is classed as cell-based. As to conditions: Homo sapiens, 312 h. The method, boiled down: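 KARPAS-422 cells were treated with PRC2 inhibitors over 9 three-fold dilutions from 10 μM top (0.5% DMSO, duplicates) in RPMI-1640 with 15% FBS at 37 °C. Every 3–4 days cells were counted and reseeded at 1×10^4/well with fresh compound. Viability was read by CellTiter-Glo luminescence on day 13.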

Structures are written as SMILES.

For the molecule `Fc1ccc2c(c1CNc1ncc(-c3cccc4ncoc34)c3nncn13)CCO2` [8-(benzo[d]oxazol-7-yl)-N-((5-fluoro-2,3-dihydrobenzofuran-4-yl)methyl)-[1,2,4]triazolo[4,3-c]pyrimidin-5-amine], the IC50 was 0.013 µM in assay [1], 0.0049 µM in assay [2] and 0.0136 µM in the assay on KARPAS-422 cells.
On the same counts, the results for `Cc1cc(-c2cnc(NCc3c(F)ccc4c3CCO4)n3cnnc23)c2nccn2c1` [N-((5-fluoro-2,3-dihydrobenzofuran-4-yl)methyl)-8-(6-methylimidazo[1,2-a]pyridin-8-yl)-[1,2,4]triazolo[4,3-c]pyrimidin-5-amine] are 0.014 µM, 0.0243 µM and 0.0116 µM.
As to `CC1=C(F)c2cc(-c3cnc(NCc4c(F)ccc5c4[C@H]4C[C@H]4O5)n4cnnc34)ccc2S1(=O)=O` [3-fluoro-5-(5-((((1aR,6bR)-5-fluoro-1a,6b-dihydro-1H-cyclopropa[b]benzofuran-6-yl)methyl)amino)-[1,2,4]triazolo[4,3-c]pyrimidin-8-yl)-2-methylbenzo[b]thiophene 1,1-dioxide], the IC50 in assay [1] amounted to 0.0058 µM; in assay [2], 0.0042 µM; in the assay with KARPAS-422 cells, 0.0055 µM.
`Cc1ccc(-c2cnc(NCc3c(F)ccc4c3CCO4)n3cnnc23)c2nc(CO)cn12` [(8-(5-(((5-fluoro-2,3-dihydrobenzofuran-4-yl)methyl)amino)-[1,2,4]triazolo[4,3-c]pyrimidin-8-yl)-5-methylimidazo[1,2-a]pyridin-2-yl)methanol]: the half-maximal inhibitory concentration (IC50) in assay [1] turned out to be 0.0014 µM; in assay [2], 0.0083 µM; in the assay with KARPAS-422 cells it was 0.0033 µM.
On the same counts, the results for `Fc1ccc2c(c1CNc1ncc(-c3cccn4cnnc34)c3nncn13)[C@H]1C[C@H]1O2` [8-([1,2,4]triazolo[4,3-a]pyridin-8-yl)-N-(((1aR,6bR)-5-fluoro-1a,6b-dihydro-1H-cyclopropa[b]benzofuran-6-yl)methyl)-[1,2,4]triazolo[4,3-c]pyrimidin-5-amine] are 0.0074 µM, 0.0095 µM and 0.0048 µM.
On the same counts, the results for `Cc1ccc(-c2cnc(NCc3c(F)ccc4c3CCO4)n3cnnc23)c2nccn12` [N-((5-fluoro-2,3-dihydrobenzofuran-4-yl)methyl)-8-(5-methylimidazo[1,2-a]pyridin-8-yl)-[1,2,4]triazolo[4,3-c]pyrimidin-5-amine] are 0.0013 µM, 0.0058 µM and 0.0013 µM.
For `CC(=O)c1c(C)nc2c(-c3cnc(NCc4c(F)ccc5c4CCO5)n4cnnc34)cccn12` [1-(8-(5-(((5-fluoro-2,3-dihydrobenzofuran-4-yl)methyl)amino)-[1,2,4]triazolo[4,3-c]pyrimidin-8-yl)-2-methylimidazo[1,2-a]pyridin-3-yl)ethan-1-one], in that order: 0.0025 µM, 0.0048 µM and 0.0016 µM.
`CC(=O)OCCc1cnc2c(-c3cnc(NCc4c(F)ccc5c4CCO5)n4cnnc34)ccc(C)n12` [2-(8-(5-(((5-fluoro-2,3-dihydrobenzofuran-4-yl)methyl)amino)-[1,2,4]triazolo[4,3-c]pyrimidin-8-yl)-5-methylimidazo[1,2-a]pyridin-3-yl)ethyl acetate]: the IC50 in assay [1] came out at 0.001 µM; in assay [2] it was 0.0062 µM; with KARPAS-422 cells it was 0.0017 µM.
For `CC1=Cc2cc(-c3cnc(NCc4c(F)ccc5c4[C@H]4C[C@H]4O5)n4cnnc34)ccc2S1(=O)=O` [5-(5-((((1aR,6bR)-5-fluoro-1a,6b-dihydro-1H-cyclopropa[b]benzofuran-6-yl)methyl)amino)-[1,2,4]triazolo[4,3-c]pyrimidin-8-yl)-2-methylbenzo[b]thiophene 1,1-dioxide], in that order: 0.0041 µM, 0.0049 µM and 0.0125 µM.
On the same counts, the results for `O=S1(=O)C=c2ccc(-c3cnc(NCc4c(F)ccc5c4[C@H]4C[C@H]4O5)n4cnnc34)cc2=C1` [5-(5-((((1aR,6bR)-5-fluoro-1a,6b-dihydro-1H-cyclopropa[b]benzofuran-6-yl)methyl)amino)-[1,2,4]triazolo[4,3-c]pyrimidin-8-yl)benzo[c]thiophene 2,2-dioxide] are 0.0006 µM, 0.0063 µM and 0.0008 µM.
Turning to `Fc1cc(-c2cnc(NCc3c(F)ccc4c3CCO4)n3cnnc23)c2ncc(F)n2c1` [8-(3,6-difluoroimidazo[1,2-a]pyridin-8-yl)-N-((5-fluoro-2,3-dihydrobenzofuran-4-yl)methyl)-[1,2,4]triazolo[4,3-c]pyrimidin-5-amine], the 50% inhibitory concentration (IC50) in assay [1] was found to be 0.0077 µM; in assay [2] it was 0.0052 µM; in the assay with KARPAS-422 cells it was 0.0075 µM.
For `NCCC1=CS(=O)(=O)c2ccc(-c3cnc(NCc4c(F)ccc5c4[C@@H]4C[C@@H]4O5)n4cnnc34)cc21` [3-(2-aminoethyl)-5-(5-((((1aS,6bS)-5-fluoro-1a,6b-dihydro-1H-cyclopropa[b]benzofuran-6-yl)methyl)amino)-[1,2,4]triazolo[4,3-c]pyrimidin-8-yl)benzo[b]thiophene 1,1-dioxide], in that order: 0.075 µM, 0.0054 µM and 0.033 µM.
On the same counts, the results for `O=S1(=O)C=Cc2c(-c3cnc(NCc4c(F)ccc5c4[C@H]4C[C@H]4O5)n4cnnc34)cccc21` [4-(5-((((1aR,6bR)-5-fluoro-1a,6b-dihydro-1H-cyclopropa[b]benzofuran-6-yl)methyl)amino)-[1,2,4]triazolo[4,3-c]pyrimidin-8-yl)benzo[b]thiophene 1,1-dioxide] are 0.0092 µM, 0.0044 µM and 0.0115 µM.
Regarding `CCOC(=O)c1cnc2c(-c3cnc(NCc4c(F)ccc5c4CCO5)n4cnnc34)cc(F)cn12` [Ethyl 6-fluoro-8-(5-(((5-fluoro-2,3-dihydrobenzofuran-4-yl)methyl)amino)-[1,2,4]triazolo[4,3-c]pyrimidin-8-yl)imidazo[1,2-a]pyridine-3-carboxylate], the IC50 worked out at 0.047 µM in assay [1] and 0.0221 µM in assay [2].
For `CCOC(=O)c1c(C(F)(F)F)nc2c(-c3cnc(NCc4c(F)ccc5c4CCO5)n4cnnc34)cccn12` [Ethyl 8-(5-(((5-fluoro-2,3-dihydrobenzofuran-4-yl)methyl)amino)-[1,2,4]triazolo[4,3-c]pyrimidin-8-yl)-2-(trifluoromethyl)imidazo[1,2-a]pyridine-3-carboxylate], in that order: 0.202 µM and 0.029 µM.
On the same counts, the results for `CCOC(=O)c1c(O)nc2c(-c3cnc(NCc4c(F)ccc5c4CCO5)n4cnnc34)cc(F)cn12` [Ethyl 6-fluoro-8-(5-(((5-fluoro-2,3-dihydrobenzofuran-4-yl)methyl)amino)-[1,2,4]triazolo[4,3-c]pyrimidin-8-yl)-2-hydroxyimidazo[1,2-a]pyridine-3-carboxylate] are 0.091 µM and 0.0912 µM.
On the same counts, the results for `Cc1ccc(-c2cnc(NCc3c(F)ccc4c3CCO4)n3cnnc23)c2ncc(F)n12` [N-((5-fluoro-2,3-dihydrobenzofuran-4-yl)methyl)-8-(3-fluoro-5-methylimidazo[1,2-a]pyridin-8-yl)-[1,2,4]triazolo[4,3-c]pyrimidin-5-amine] are 0.0061 µM and 0.0058 µM.
As to `Cc1ccc(-c2cnc(NCc3c(F)ccc4c3CCO4)n3cnnc23)c2ncc(C(=O)O)n12` [8-(5-(((5-fluoro-2,3-dihydrobenzofuran-4-yl)methyl)amino)-[1,2,4]triazolo[4,3-c]pyrimidin-8-yl)-5-methylimidazo[1,2-a]pyridine-3-carboxylic acid], the IC50 is 0.004 µM in assay [1] and 0.0054 µM in assay [2].
`CC1=Cc2cc(-c3cnc(NCc4c(F)ccc5c4CCO5)n4cnnc34)cc(Cl)c2S1(=O)=O` [7-chloro-5-(5-(((5-fluoro-2,3-dihydrobenzofuran-4-yl)methyl)amino)-[1,2,4]triazolo[4,3-c]pyrimidin-8-yl)-2-methylbenzo[b]thiophene 1,1-dioxide]: the half-inhibitory concentration (IC50) turned out to be 0.026 µM in assay [1] and 0.0039 µM in assay [2].
